From patent US9648878B2, “Herbicidal agents containing flufenacet” (BAYER CROPSCIENCE AG, priority 2012, dated 2017)

Tests used:
[1] = test system: LOLSS resistant to HRAC group A; experiment: Greenhouse post-emergence herbicidal action on resistant Lolium biotype (HRAC group A resistant); assay type: in vivo, Lolium spp.; details: post-emergence (PO, BBCH 11); dose g of AS/ha: flufenacet 60, aclonifen 150, diflufenican 37.5, (A)+(B)+(C) 60+150+37.5, pinoxaden+cloquintocet-mexyl 60+15, mesosulfuron+iodosulfuron+mefenpyr 15+3+45
Protocol: (§1) In the standard implementation of the test, seeds of various broad-leaved weed and weed grass biotypes (origins) were sown in an 8-13 cm diameter pot filled with natural soil of a standard field soil (loamy silt; non-sterile) and covered with a covering soil layer of about 1 cm. The pots were then cultivated in a greenhouse (12-16 h light, temperature day 20-22° C., night 15-18° C.) until the time of application. The pots were treated on a laboratory track sprayer with spray liquors comprising the compositions according to the invention, mixtures of the prior art or the components applied individually. Application of the active compounds or active compound combinations formulated as WG, WP, EC or otherwise was carried out at the appropriate growth stages of the plants. The amount of water used for spray application was 100-600 I/ha. After the treatment, the plants were returned to the greenhouses.
(§2) About 3 weeks after the application, the soil action or/and foliar action was assessed visually according to a scale of 0-100% in comparison to an untreated comparative group: 0%=no noticable effect compared to the untreated comparative group; 100%=full effect compared to the untreated comparative group.
(§3) 2. Post-emergence action against weeds: seeds of various broad-leaved weed and weed grass biotypes (origins) were sown in an 8-13 cm diameter pot filled with natural soil of a standard field soil (loamy silt; non-sterile) and covered with a covering soil layer of about 1 cm. […]
(§4) Insofar as herbicidal effects of the compositions according to the invention compared to mixtures of the prior art or compared to components applied individually against economically important mono- and dicotyledonous harmful plants were the center of attention, the synergistic herbicidal activities were calculated using Colby's formula (cf. S. R. Colby; Weeds 15 (1967), 20-22): E^C=(A+B+C)−(A×B+A×C+B×C)/100+(A×B×C)/10000 […]
(§5) Δ=difference (%) of the measured value (%) to the expected value (%) (measured value minus expected value) […]

[2] = test system: LOLSS resistant to HRAC group B; experiment: Greenhouse post-emergence herbicidal action on resistant Lolium biotype (HRAC group B resistant); assay type: in vivo, Lolium spp.; details: post-emergence (PO, BBCH 11); dose g of AS/ha: flufenacet 60, aclonifen 150, diflufenican 37.5, (A)+(B)+(C) 60+150+37.5, pinoxaden+cloquintocet-mexyl 60+15, mesosulfuron+iodosulfuron+mefenpyr 15+3+45
Protocol: as §1, §2, §3, §4, §5

| SMILES | herbicidal effect (visual score 0-100% vs untreated), LOLSS resistant to HRAC group A [1] | herbicidal effect (visual score 0-100% vs untreated), LOLSS resistant to HRAC group B [2] |
| --- | --- | --- |
| Nc1c([N+](=O)[O-])ccc(Oc2ccccc2)c1Cl [aclonifen (B), 2-chloro-6-nitro-3-phenoxybenzenamine] | 5% | 38% |
| CC(C)N(C(=O)COc1nnc(C(F)(F)F)s1)c1ccc(F)cc1 [flufenacet (A), N-(4-fluorophenyl)-N-(1-methylethyl)-2-[[5-(trifluoromethyl)-1,3,4-thiadiazol-2-yl]oxy]acetamide] | 18% | 60% |
| O=C(Nc1ccc(F)cc1F)c1cccnc1Oc1cccc(C(F)(F)F)c1 [diflufenican (C), N-(2,4-difluorophenyl)-2-[3-(trifluoromethyl)phenoxy]-3-pyridinecarboxamide] | 23% | 35% |
